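Step 1: Grow cells in 96-well plates. Step 2: Expose to compound for 48 hours at 5 concentrations. Step 3: Interpolate endpoints linearly; if unreached, use highest concentration. GI50 is the concentration that inhibits growth by half. At the TGI there is no net growth.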
Legend:
Experiment in all cases: NCI anticancer screen, dose series, 48 h
T-47D breast = system: T-47D breast
HCT-116 colon = system: HCT-116 colon
U251 CNS = system: U251 CNS
786-0 renal = system: 786-0 renal
HS 578T breast = system: HS 578T breast
BT-549 breast = system: BT-549 breast
MDA-N = system: MDA-N
MDA-MB-435 = system: MDA-MB-435
SR leukemia = system: SR leukemia
XF 498 CNS = system: XF 498 CNS
HOP-18 NSCLC = system: HOP-18 NSCLC

SMILES	TGI (T-47D breast)	TGI (HCT-116 colon)	TGI (U251 CNS)	TGI (786-0 renal) [µM]	TGI (HS 578T breast)	TGI (BT-549 breast)	TGI (MDA-N)	TGI (MDA-MB-435)	TGI (SR leukemia)	TGI (XF 498 CNS) [µM]	TGI (HOP-18 NSCLC) [µM]	GI50 (T-47D breast)	GI50 (HCT-116 colon)	GI50 (U251 CNS)	GI50 (HS 578T breast)	GI50 (BT-549 breast)	GI50 (SR leukemia)	GI50 (MDA-N) [µg/mL]	GI50 (MDA-MB-435)	GI50 (XF 498 CNS) [µM]
Cc1ccc2nc(-c3ccc(NC(=O)c4ccc(N)cc4)c(S(=O)(=O)O)c3)sc2c1	> 100 µM	> 100 µM	> 100 µM	> 100	> 100 µM	> 100 µM	> 100 µM	> 100 µM	–	–	–	–	–	–	–	–	–	–	–	–
CC1=CC(O)C(C(O)(C(F)(F)F)C(F)(F)F)C(C)(C)C1 (stereo not given)	> 10 µM	> 10 µM	> 10 µM	–	> 10 µM	> 10 µM	> 10 µM	–	–	–	–	–	–	–	–	–	–	–	–	–
OCCCSCCO	> 100 µM	> 100 µM	> 100 µM	> 100	> 100 µM	> 100 µM	> 100 µM	> 100 µM	> 100 µM	–	–	–	–	–	–	–	–	–	–	–
Nc1cc(S(=O)(=O)O)cc2ccc(S(=O)(=O)O)cc12	> 100 µM	> 100 µM	> 100 µM	> 100	> 100 µM	> 100 µM	> 100 µM	> 100 µM	> 100 µM	–	–	–	–	–	–	–	–	–	–	–
Nc1nnc(CCC(=O)Nc2cc(Cl)ccc2Cl)n1N	–	> 100 µM	> 100 µM	–	–	–	–	–	> 100 µM	> 100	> 100	–	–	–	–	–	–	–	–	–
CS(C)(=O)=Nn1c(=O)n2n(c1=O)C1c3ccccc3C2c2ccccc21	> 100 µM	–	> 100 µM	–	–	–	> 100 µM	> 100 µM	> 100 µM	–	–	–	–	–	–	–	–	–	–	–
Cc1n[n+]([O-])c(C)cc1[N+](=O)[O-]	35.3 µM	31.6 µM	51.9 µM	> 100	66.9 µM	51.5 µM	–	29 µM	–	–	–	–	–	–	–	–	–	–	–	–
CC1C(=O)c2cc3c(cc2CCN(C)Cc2c1ccc1c2OCO1)OCO3 (stereo not given)	> 75 µg/mL	> 75 µg/mL	> 75 µg/mL	–	> 75 µg/mL	> 75 µg/mL	> 75 µg/mL	> 75 µg/mL	40.9 µg/mL	–	–	> 75 µg/mL	23.4 µg/mL	67.5 µg/mL	> 75 µg/mL	59 µg/mL	13.3 µg/mL	> 75	47.7 µg/mL	–
COc1cccc(/C=N/[N-]C(N)=O)c1[O-].[Ni+2].[OH3+]	–	0.27 µM	0.816 µM	0.474	–	–	–	–	2.64 µM	0.331	–	–	–	–	–	–	–	–	–	0.152
CCOC(=O)c1c(-c2cccc(Cl)c2)c(C(=O)OC)c(C)c2sc(C=O)nc12	45.6 µM	21.1 µM	32.2 µM	–	50.5 µM	33.7 µM	56.7 µM	38.7 µM	–	–	–	–	–	–	–	–	–	–	–	–
N#Cc1ccccc1C#C/C=C\C#Cc1ccccc1N	> 100 µM	–	> 42.5 µM	–	> 25.5 µM	> 28.2 µM	–	3.21 µM	2.52 µM	–	–	8.72 µM	–	4.16 µM	5.29 µM	8.39 µM	0.745 µM	–	1.34 µM	–
COc1cc(C2c3cc4c(cc3[C@@H](Nc3ccc(Oc5ccccc5)cc3)C3COC(=O)[C@H]23)OCO4)cc(OC)c1O (stereo not given in full)	–	> 100 µM	> 27.9 µM	–	–	–	–	–	–	> 59.8	> 100	–	–	–	–	–	–	–	–	–
Clc1ccc(Nc2nc(Nc3ccccc3)nc(Nc3ccc(-c4cc(-c5ccc(Cl)cc5)on4)cc3)n2)cc1	> 100 µM	26.5 µM	> 100 µM	–	> 100 µM	> 100 µM	–	69.7 µM	> 100 µM	–	–	8.94 µM	7.68 µM	17.7 µM	11.4 µM	32.9 µM	26 µM	–	17.8 µM	–
Cc1oc(N)c(S(=O)(=O)c2cc3ccccc3n(O)c2=N)c1C	> 100 µM	–	> 100 µM	> 100	> 100 µM	> 100 µM	> 100 µM	> 100 µM	–	–	–	–	–	–	–	–	–	–	–	–
CC(=O)Nc1ccc(C(=O)NN2C(=O)C(Cl)C2c2cccc([N+](=O)[O-])c2)cc1 (stereo not given)	–	> 100 µM	> 100 µM	–	–	–	–	–	> 100 µM	–	–	–	–	–	–	–	–	–	–	–
CC1=C[C@@H](C)C[C@]2(C)CC[C@H](O2)[C@]23CC[C@](CO)(C[C@H](O2)[C@@H]2O[C@@](C)(CC2=O)[C@@H](O)[C@H]2CC[C@@]4(CCC[C@@H](O4)[C@H](C)C(=O)O[C@H]4C[C@H]([C@]5(O)OCC[C@H](C)[C@@H]5O)O[C@H]4C=C1)O2)O3	> 10 µM	> 10 µM	0.438 µM	–	0.00776 µM	0.258 µM	> 10 µM	> 10 µM	> 10 µM	–	–	–	–	–	–	–	–	–	–	–
CCOCC(=O)N(C)c1cccc2c3c(n(C)c12)CCCCC3	–	> 100 µM	> 100 µM	–	–	–	–	–	–	> 100	> 20.9	–	–	–	–	–	–	–	–	–

— PubChem BioAssay (NCI)
